For nine compounds, IC50, inhibition and EC50 results are on record in US20230147257A1 (DONG-A ST CO., LTD., priority 2020, published 2023).

Holding throughout (format): cell-based
Assay [1] deals with T1, AhR (Homo sapiens, UniProt P35869).
T1 construct: host or cells: HepG2
T1 sequence (P35869 11-848): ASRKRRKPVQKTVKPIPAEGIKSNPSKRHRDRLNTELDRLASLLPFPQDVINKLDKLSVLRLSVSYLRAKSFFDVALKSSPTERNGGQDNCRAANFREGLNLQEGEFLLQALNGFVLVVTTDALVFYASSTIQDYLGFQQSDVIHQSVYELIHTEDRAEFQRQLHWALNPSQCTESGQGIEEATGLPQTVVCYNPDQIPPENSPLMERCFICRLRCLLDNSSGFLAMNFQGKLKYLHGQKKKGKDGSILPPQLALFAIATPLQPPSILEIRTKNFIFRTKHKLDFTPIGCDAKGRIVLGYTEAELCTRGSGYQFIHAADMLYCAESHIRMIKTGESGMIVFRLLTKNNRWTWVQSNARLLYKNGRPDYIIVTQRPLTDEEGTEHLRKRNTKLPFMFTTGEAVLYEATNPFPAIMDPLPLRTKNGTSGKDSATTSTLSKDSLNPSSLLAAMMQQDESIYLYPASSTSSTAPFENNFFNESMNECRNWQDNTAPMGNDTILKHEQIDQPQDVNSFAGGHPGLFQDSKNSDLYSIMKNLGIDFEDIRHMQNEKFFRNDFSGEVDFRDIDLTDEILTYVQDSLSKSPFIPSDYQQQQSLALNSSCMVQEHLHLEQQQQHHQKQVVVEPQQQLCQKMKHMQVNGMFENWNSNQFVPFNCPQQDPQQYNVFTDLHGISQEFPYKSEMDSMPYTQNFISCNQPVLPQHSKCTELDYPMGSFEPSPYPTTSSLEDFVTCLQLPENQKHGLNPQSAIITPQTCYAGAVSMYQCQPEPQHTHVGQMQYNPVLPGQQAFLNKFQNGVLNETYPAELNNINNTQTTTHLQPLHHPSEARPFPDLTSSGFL
In words: In vitro assay 1: XRE-luciferase reporter assay, antagonism in human cell line (HepG2). The note with it: HepG2 XRE-luciferase, 6 hours, read-out: Assay 1: AhR-Luc Human Antagonism (IC50). In a few lines: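 HepG2 cells carrying XRE-firefly luciferase (transient or stable) plus constitutive Nano-Luc control, stimulated 6 h with kynurenine (50 or 200 μM) with or without compound. Firefly/Nano-Luc ratio normalized to kynurenine-alone (maximum) and vehicle (minimum); IC50 by four-parameter nonlinear regression.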
(In general: A reporter such as luciferase makes a cellular process visible.)

The target of assay [2] is T1, AhR. Description: In vitro assay 4: endogenous AhR activity assay (CYP1A1 and CYP1B1 mRNA, qRT-PCR, HepG2 cells). The note with it: TCDD 10 nM with compound 123 nM, 4 hours, mRNA relative to β-actin. Here is the method: In Vitro Assay 4: Endogenous AhR Activity Assay
HepG2 cells were seeded in 12-well plate (3×10^5 cells/well). A day after seeding, the cells were treated with TCDD (10 nM) alone or with compounds (123 nM) for 4 hours. Total RNA was extracted using Trizol (Thermo Fisher Scientific). cDNA synthesis and quantitative RT-PCR (qRT-PCR) assays were performed using PrimeScript™ RT Master Mix (TAKARA) and TB Green™ Premix Ex Taq™ II (TAKARA) in accordance with manufacturer's instruction. For the measurement of endogenous AhR activity, relative mRNA levels of CYP1A1 and CYP1B1 were quantitated relative to β(beta)-actin mRNA by the comparative Ct (ΔΔCt) method. The percent inhibitions were calculated according to: […]
On the technique in general: Real-time PCR tracks product formation cycle by cycle.

Assay [3] deals with T1, AhR. Description: In vitro assay 3: XRE-luciferase reporter assay, agonism in human cell line (HepG2). The note with it: HepG2 XRE-Luc, tryptophan free medium, test compound alone, 6 hours. The source says:
(§1) In Vitro XRE-Luciferase Reporter Assay (In Vitro Assay 1, 2, 3)
(§2) AhR activation leads the induction of target gene expression such as CYP1A1 and CYP1B1 by AhR binding to AhR-responsive DNA elements also known as xenobiotics responsive elements (XRE). The assay for measuring AhR activity herein is the luciferase assay using cell lines transfected with luciferase reporter plasmid containing XREs at the upstream of the reporter gene. Cells transfected with XRE-luciferase reporter (XRE-Luc) plasmid drive luciferase activity reflecting activation and inhibition of AhR in the cells. In addition to transfection with XRE-reporter vector, cells were co-transfected with Nano-luciferase reporter gene construct (Nano-Luc) containing constitutively active promoter as internal control. Kynurenine (an endogenous AhR agonist) was used to stimulate cells to test antagonistic properties of the compounds. The half-maximal inhibitory concentration (IC50) or half-maximal effective concentration (EC50) value was calculated using nonlinear regression (four parameters) with Prism8.0 software (GraphPad).
In Vitro Assay 3: Agonism in Human Cell Line
HepG2 (human hepatoma cell line) cells co-transfected with XRE-Luc and Nano-Luc plasmids were plated in tryptophan free medium containing 1% of dialyzed fetal bovine serum and incubated overnight at 37° C. in a CO2 incubator. After 24 hours, cells were treated for 6 hours with test compounds or not. Firefly luciferase and Nano-luciferase activity was measured using Nano-glo Luciferase kit (Promega) and relative luciferase activity (Firefly/Nano-Luc) was used to calculate EC50 values. As a positive control, cells were incubated with TCDD. (EC50 Values are grouped as A, B, C and D, whereby A: EC50<0.1 μM; B: 0.1<EC50<1.0 μM; C: 1.0<EC50<10 μM; D: EC50>10 μM)

Assay [4] concerns the target T2, AhR (Mus musculus, UniProt P30561).
T2 sequence (P30561 1-848): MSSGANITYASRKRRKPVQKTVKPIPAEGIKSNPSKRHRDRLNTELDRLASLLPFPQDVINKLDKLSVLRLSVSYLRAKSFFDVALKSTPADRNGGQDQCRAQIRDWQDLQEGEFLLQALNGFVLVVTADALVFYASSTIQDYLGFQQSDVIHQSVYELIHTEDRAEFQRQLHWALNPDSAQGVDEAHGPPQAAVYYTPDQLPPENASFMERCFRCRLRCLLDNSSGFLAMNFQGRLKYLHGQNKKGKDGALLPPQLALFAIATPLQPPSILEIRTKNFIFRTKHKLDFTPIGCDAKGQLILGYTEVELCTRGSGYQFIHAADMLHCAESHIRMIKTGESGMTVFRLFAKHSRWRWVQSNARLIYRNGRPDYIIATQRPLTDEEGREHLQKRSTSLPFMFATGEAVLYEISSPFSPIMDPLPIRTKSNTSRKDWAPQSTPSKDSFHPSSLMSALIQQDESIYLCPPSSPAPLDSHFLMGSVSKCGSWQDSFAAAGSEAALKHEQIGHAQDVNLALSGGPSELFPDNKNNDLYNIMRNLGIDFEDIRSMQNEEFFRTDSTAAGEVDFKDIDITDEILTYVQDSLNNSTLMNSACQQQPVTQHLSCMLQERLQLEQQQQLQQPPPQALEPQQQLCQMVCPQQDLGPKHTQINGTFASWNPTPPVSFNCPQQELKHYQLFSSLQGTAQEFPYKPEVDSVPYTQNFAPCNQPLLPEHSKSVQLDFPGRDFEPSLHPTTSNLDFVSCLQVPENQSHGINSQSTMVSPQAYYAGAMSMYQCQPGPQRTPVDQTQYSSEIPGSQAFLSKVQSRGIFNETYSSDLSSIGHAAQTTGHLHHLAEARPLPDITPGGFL
Description: In vitro assay 2: XRE-luciferase reporter assay, antagonism in mouse cell line (Hepa1c1c7). The note with it: Hepa1c1c7 XRE-Luc, 6 hours.
Excerpt: as §1, §2
In Vitro Assay 2: Antagonism in Mouse Cell Line
Hepa1c1c7 (murine liver cancer cell line) cells co-transfected with XRE-Luc and Nano-Luc plasmids were plated in complete medium and incubated overnight at 37° C. in a CO2 incubator. Following incubation, cells were treated with AhR activating ligands such as kynurenic acid, kynurenine(#) with or without test compounds for 6 hours. Firefly luciferase and Nano-luciferase activity was measured using Nano-glo Luciferase kit (Promega) and relative luciferase activity (Firefly/Nano-Luc) was used to calculate IC50 values. The relative luciferase activity was further normalized with agonists alone group as the maximum control and the vehicle group as the minimum control. (IC50 Values are grouped as A, B, C and D, whereby A: IC50<0.01 μM; B: 0.01<IC50<0.1 μM; C: 0.1<IC50<1.0 μM; D: IC50>1.0 μM)

Setting [5] is: cells treated with kynurenine 200 μM (no *).
The mark [6] stands for this setting: read-out: CYP1A1 (% Inhibition).
The mark [7] stands for this setting: read-out: CYP1B1 (% Inhibition).
Setting [8] is: read-out: Assay 3: AhR-Luc Human Agonism (EC50).
The mark [9] stands for this setting: cells treated with kynurenine 50 μM (*).
[10] abbreviates: AhR activating ligand such as kynurenic acid (no #).
The mark [11] stands for this setting: read-out: Assay 3: AhR-Luc Human Agonism (EC50, nM), class in brackets.
Where [12] appears, read: cells treated with kynurenine (#).

Read-outs that look alike come from different tables or passages of the source. A value given as a limit tells only on which side of the number the result lay.

As a reminder, the IC50 is the concentration needed to halve the response being measured. A word on the inhibition: it is the change of the read-out against control, counted positive when it falls. As to `Cn1cc(-c2nc(-c3ccc(C(F)(F)F)cc3)cc3c(=O)n([C@H]4CCCC[C@H]4O)cnc23)cn1` [Example 17, 3-((1S,2R)-2-hydroxycyclohexyl)-8-(1-methyl-1H-pyrazol-4-yl)-6-(4-(trifluoromethyl)phenyl)pyrido[3,4-d]pyrimidin-4(3H)-one], the IC50 on AhR [1] (setting [5]) was above 1000 nM. Moreover, the inhibition at 0.123 µM at AhR [2] (setting [6]) was determined as 90.7%; on AhR [2] (setting [7]) it was 99.1%.

One may read the EC50 as the concentration needed to bring the measured effect to its halfway point. On to `CC(C)(O)Cn1cnc2c(-c3cccnc3)nc(-c3ccc(Cl)cc3)cc2c1=O` [Example 38, 6-(4-chlorophenyl)-3-(2-hydroxy-2-methylpropyl)-8-(pyridin-3-yl)pyrido[3,4-d]pyrimidin-4(3H)-one], for which the concentration for half-maximal inhibition (IC50) on AhR [1] (setting [5]) was below 10 nM. For the same compound, the EC50 on AhR [3] (setting [8]) is 1670 nM. Moreover, the inhibition at 0.123 µM at AhR [2] (setting [6]) was 100%.

For the compound `CC(CO)n1cnc2c(-c3cnn(C)c3)nc(-c3ccc(C(F)(F)F)cc3)cc2c1=O` (stereo not drawn) [Example 45, 3-(1-hydroxypropan-2-yl)-8-(1-methyl-1H-pyrazol-4-yl)-6-(4-(trifluoromethyl)phenyl)pyrido[3,4-d]pyrimidin-4(3H)-one], the IC50 on AhR [1] (setting [9]) is below 10 nM. In addition, the EC50 at AhR [3] (setting [8]) is 0.0428 nM. The figures for the inhibition at 0.123 µM at AhR [2] (setting [6]) and on AhR [2] (setting [7]) were 99.6% and 100%, respectively.

Turning to `CCC(CO)n1cnc2c(-c3cccnc3)nc(-c3ccc(Cl)cc3)cc2c1=O` (stereo not drawn) [Example 51, 6-(4-chlorophenyl)-3-(1-hydroxybutan-2-yl)-8-(pyridin-3-yl)pyrido[3,4-d]pyrimidin-4(3H)-one], the IC50 at AhR [1] (setting [9]) is below 10 nM. In addition, the EC50 at AhR [3] (setting [8]) turned out to be 701 nM. Also, on AhR [2] (setting [6]), the inhibition at 0.123 µM was 99.2%.

For `O=c1c2cc(-c3ccc(Cl)cc3)nc(-c3cccnc3)c2ncn1[C@H]1CC[C@H](O)CC1` [Example 56, 6-(4-chlorophenyl)-3-((1r,4r)-4-hydroxycyclohexyl)-8-(pyridin-3-yl)pyrido[3,4-d]pyrimidin-4(3H)-one], the IC50 on AhR [1] (setting [5]) and at AhR [4] (setting [10]) was below 10 nM throughout. For the same compound, the values for the EC50 on AhR [3] (setting [8]) and on AhR [3] (setting [11]) were above 30000 nM and above 10000 nM, respectively. The inhibition at 0.123 µM on AhR [2] (setting [6]) was 101%.

As for `O=c1c2cc(-c3ccc(C(F)(F)F)cc3)nc(-c3cccnc3)c2ncn1CC(O)CO` (stereo not drawn) [Example 66, 3-(2,3-dihydroxypropyl)-8-(pyridin-3-yl)-6-(4-(trifluoromethyl)phenyl)pyrido[3,4-d]pyrimidin-4(3H)-one], the IC50 on AhR [1] (setting [5]) was below 10 nM; at AhR [4] (setting [12]), 10 to 100 nM. Further, the inhibition at 0.123 µM on AhR [2] (setting [6]) is 100%.

For `CC(CO)n1cnc2c(-c3cccnc3)nc(-c3ccc(N4CCOCC4)cc3)cc2c1=O` (stereo not drawn) [Example 75, 3-(1-hydroxypropan-2-yl)-6-(4-morpholinophenyl)-8-(pyridin-3-yl)pyrido[3,4-d]pyrimidin-4(3H)-one], the values for the IC50 at AhR [1] (setting [5]) and against AhR [4] (setting [12]) were below 10 nM and 10 to 100 nM, respectively. Further, the EC50 was above 30000 nM at AhR [3] (setting [8]) and above 10000 nM on AhR [3] (setting [11]). The inhibition at 0.123 µM on AhR [2] (setting [6]) was 101%.

For the compound `CC(=O)NCC(C)n1cnc2c(-c3cccnc3)nc(-c3ccc(Cl)cc3)cc2c1=O` (stereo not drawn) [Example 88, N-(2-(6-(4-chlorophenyl)-4-oxo-8-(pyridin-3-yl)pyrido[3,4-d]pyrimidin-3(4H)-yl)propyl)acetamide], the figures for the IC50 on AhR [1] (setting [5]) and on AhR [4] (setting [12]) were below 10 nM and 10 to 100 nM, respectively. Besides, the EC50 is above 30000 nM on AhR [3] (setting [8]) and above 10000 nM on AhR [3] (setting [11]). On AhR [2] (setting [6]), the inhibition at 0.123 µM came out at 99.2%.

Turning to `CC(=O)N1CCC(n2cnc3c(-c4cccnc4)nc(-c4ccc(Cl)cc4)cc3c2=O)CC1` [Example 96, 3-(1-acetylpiperidin-4-yl)-6-(4-chlorophenyl)-8-(pyridin-3-yl)pyrido[3,4-d]pyrimidin-4(3H)-one], the IC50 at AhR [1] (setting [5]) and at AhR [4] (setting [10]) was below 10 nM each time. Further, the EC50 at AhR [3] (setting [8]) was above 30000 nM; at AhR [3] (setting [11]), above 10000 nM. At AhR [2] (setting [6]), the inhibition at 0.123 µM worked out at 99.9%.
